Columns and labels:
[1] = tested on: lymphocytes; assay: Lymphocyte Transformation Test for metal sensitivity (stimulation index); assay type: cell-based; details: SI≥4 positive
Source text: The Lymphocyte Transformation Test used for Metal Sensitivity Testing measures cell proliferation relative to a negative control.

[2] = tested on: mononuclear cells; assay: Lymphocyte Transformation Test with PWM positive control in the presence of metals (toxicity); assay type: cell-based; details: metals stabilized with citrate
Source text: In this example, each metal tested was stabilized with citrate.

Question: With polkweed mitogen [PWM] as the substance, how does the “Stimulation Index” value ([1]; Subject 19A, 6 Dec. 2016, assay with citrate) read?
Answer: The value was 108.15.

Question: And the “Stimulation Index” value ([1]; Subject 19A, 15 Jul. 2016, assay without citrate)?
Answer: Its value is 124.

Question: And the “Stimulation Index” value ([1]; Subject 21R, 3 Feb. 2017, assay with citrate)?
Answer: The value was 75.85.

Question: What about the “Stimulation Index” value ([1]; Subject 21R, 19 Jul. 2016, assay without citrate) of the same substance?
Answer: Its value is 223.

Question: What about the “Stimulation Index” value ([1]; Subject 20112, 11 Jan. 2017, assay with citrate) of the same substance?
Answer: The value was 691.43.

Question: And the “Stimulation Index” value ([1]; Subject 20112, 11 Nov. 2016, assay without citrate)?
Answer: Its value is 669.51.

Question: What about the “Stimulation Index” value ([1]; Subject 71390, 4 Nov. 2016, assay without citrate) of the same substance?
Answer: Its value is 119.6.

Question: And the “Stimulation Index” value ([1]; Subject 71390, 11 Jan. 2017, assay with citrate)?
Answer: Its value is 128.6.

Question: And the “Stimulation Index for PWM in the presence of 0.1 mM metals” value (“Stimulation Index for PWM” below) ([2]; Donor LS 23 89053D)?
Answer: Its value is 217.

Question: What about the “Stimulation Index for PWM” value ([2]; Donor LS 23 89054C) of the same substance?
Answer: Its value is 40.

Question: What about the “Stimulation Index for PWM” value ([2]; Donor LS 23 89058C) of the same substance?
Answer: The value was 202.

Question: And the “Stimulation Index for PWM” value ([2]; Donor LS 23 89063E)?
Answer: The value was 362.
